# From US6517839B1, “Methods for inducing interleukin-12 and a type1/Th1 T-cell response” (priority 1997, dated 2003)
# Test system: THP-1 cells
# Test: IL-12 p40 release from THP-1 cells, measured by ELISA of 20 h supernatants
# Format: cell-based, human
# Details: for IL-12 p40 release: Example 7, FIG. 10, THP-1 20 h
Substance,"IL-12 p40 release (monocyte Western blot) (Example 4, FIG. 7, solubilized gel regions of Rotofor fraction #4, average of four experiments)",IL-12 p40 release
38 kDa lipoprotein: M. tuberculosis 38 kDa lipoprotein antigen; migrates as 39 kDa band,some contribution,–
recombinant 19 kDa expressed in E. coli: recombinant form of the M. tuberculosis 19 kDa antigen expressed in E. coli,–,failed to induce any IL-12 p40
"recombinant 19 kDa expressed in M. vaccae: recombinant form of the M. tuberculosis 19 kDa antigen expressed in a mycobacterial system, M. vaccae",–,stimulated IL-12 p40 release in an equivalent manner
